This passage reports Activity results from ChEMBL document CHEMBL1151341, “Constituents of Nealchornea yapurenis (Euophorbiaceae)” (J Nat Prod, 1980).

The source made the active and inactive calls. The calls are words filed in the database; no cut-off is given here.

The subject of the assay is P388. In words: Antitumor activity against mouse P388 cells xenografted in mouse at 50 to 400 mg/kg. The class given is functional, organism-based.

Take `CC[C@H](CC[C@@H](C)[C@H]1CC[C@H]2[C@@H]3CC=C4C[C@@H](O)CC[C@]4(C)[C@H]3CC[C@]12C)C(C)C`: the outcome was inactive.

As for `CC[C@H](CC[C@@H](C)[C@H]1CC[C@H]2[C@@H]3CC=C4C[C@@H](O[C@@H]5O[C@H](CO)[C@@H](O)[C@H](O)[C@H]5O)CC[C@]4(C)[C@H]3CC[C@]12C)C(C)C`, the result was inactive.

For `CCCCCCCCCCCCCCCCCCCCCCCCCC(=O)O`, the outcome was inactive.

With `COc1cc2ccc(=O)oc2cc1O`, the outcome was inactive.
